# Test results from patent publication US20030203963A1, “Antimicrobial agent” (priority 2001, published 2003).
# Key:
# Br. thermosphacta = assay: Test in milk; assay type: cell-based, Brochothrix thermosphacta; details: 2000 ppm, TMGB010605
# Method: 8.9 ml samples of UHT milk containing 0.5% glucose and the indicator bromocresol purple (0.01%) were prepared and sterilised by autoclaving. The pH before APP addition was pH 6.65. Appropriate stock solutions of APP batch number APP20010215 (at 138 mg/ml) were prepared and filter sterilised. 1 ml of each was added to the milk to prepare tests containing 0, 1000 and 2000 ppm APP. Tests were then inoculated with 100 μl of diluted overnight broth cultures or spore suspensions to give a final inoculum level of ca. 10^3 cfu/ml. These and uninoculated tests were incubated at 20 and 8° C. and examined daily for visible changes compared to uninoculated control.
# B. nivea 163642 = assay: Test in apple juice; assay type: cell-based; details: apple juice (pH 3.42) at 25° C., TAJ010530
# Method: (§1) 8.9 ml apple juice samples (pH 3.42) were prepared and autoclaved. Batch number APP20010215 (at 138 mg/ml) was used to prepare filter-sterilised stock solutions for 1 ml addition to the juice to achieve 0, 1000, 2000 ppm APP. Tests were inoculated with 100 μl of an appropriately diluted overnight SLM broth of yeast culture or ascospore suspension of Byssochlamys spores prepared earlier. The tests were incubated at 25° C., and examined daily for signs of growth (e.g. turbidity, mycelium development).
# Candida parapsilosis 458 = assay: Test in apple juice; assay type: cell-based; details: apple juice (pH 3.42) at 25° C., TAJ010530
# Method: as §1
# [1] = test system: Rhodotorula mucilaginosa var mucilaginosa CBS8161; assay: Test in apple juice; assay type: cell-based; details: for Growth inhibition: apple juice (pH 3.42) at 25° C., TAJ010530
# Method: as §1
# [2] = test system: S. carisbergensis CRA6413; assay: Bioscreen growth inhibition test; assay type: cell-based, Saccharomyces carlsbergensis; details: APP 213, BS010420, 72 h/25° C.
# Method: (§2) For broth cultures and Bioscreen testing most bacteria were grown in Brain Heart Infusion (BHI, Oxoid, pH 7.4). Lactobacillus sake A10 was grown in de Man, Rogosa, Sharpe medium ([…], Oxoid). Yeasts were grown in Sabouraud Liquid medium (SLM, Oxoid). Most bacteria were cultured at 30° C. Lactic acid bacteria were grown on solid medium in enriched CO2 atmosphere. Clostridium species were grown in Reinforced Clostridial Medium (RCM) at 37° C. anaerobically. Brochothrix thermosphacta fungi and yeasts were grown at 25° C. Fungi were cultured on Malt Extract Agar (MEA, Oxoid).
# (§3) An automated Microbiology Reader Bioscreen C was used to measure growth curves of the strains in the presence and absence of APP. The Bioscreen C measures the development of turbidity (i.e. growth) kinetically by vertical photometry in 200 wells of a honeycomb microtitre plate, simultaneously. The system consists of a Bioscreen C analyser, which is an incubator and measurement unit, integrated with a PC, software (BioLink v 5.30), printer and a ‘Honeycomb 2’ cuvette multiwell plate. Growth curve data can be analysed within the BioLink software or exported to programs such as Excel.
# (§4) Broth culture media were dispensed in 270 μl volumes into the wells as directed. […] (depending on the micro-organism under investigation) with readings taken every 20 minutes after the trays were shaken. […]
# [3] = test system: S cerevisiae var. paradoxus H103; assay: Bioscreen growth inhibition test; assay type: cell-based, Saccharomyces cerevisiae var. paradoxus; details: APP 213, BS010420, 72 h/25° C.
# Method: as §2, §3, §4
# Cl. tyrobutyricum 2753 = assay: Sensitivity testing for Clostridium species in cooked meat medium; assay type: cell-based; details: highest level tested 2000 ppm APP20010215, anaerobically at 37° C.
# Method: Stock solutions of APP215 (0.5, 1 and 2%) were prepared and filter-sterilised. Cooked meat medium (CMM, Oxoid) was prepared by distributing 1 g of the medium to individual test tubes, which were then filled with 8.9 ml water. After autoclaving 100 μl of the APP stock solutions were added, to give final concentrations of 0, 500, […] and 2000 ppm APP. The tests were inoculated with […] of Clostridium spores, to give an inoculum level of ca. 10 cfu/ml. The tubes were overlaid with 3 ml of 2% agar to maintain anaerobicity. The tests were incubated at 37° C., and examined daily for signs of growth (turbidity, gas production).
# [4] = test system: Br. thermosphacta CRA78884; assay: Test in cooked sausage meat slurry; assay type: cell-based, Brochothrix thermosphacta; details: 500 ppm; cooked sausage meat slurry at 8° C., pH 6.2, TSM010605
# Source text: 500 g of bologna sausage meat mixture was mixed with 500 g Brain Heart Infusion broth (BHIB) to make a homogeneous slurry. The bologna sausage meat mix comprised (g per kg): lean beef 320; lean pork 202; lard 250; water 40; glucose 5; starch 155; spice mix 3.75; sodium glutamate 0.5; sodium erythorbate 0.545; sodium di-phosphate 3; NaCl 20; sodium nitrite 0.15. 200 g samples of the meat slurry were autoclaved. While the meat was still warm it was re-mixed thoroughly. When the meat had cooled it was inoculated with 2 ml of 10^5 cfu/ml spore or cell suspension, and re-mixed again. […] The meat slurry was again shaken thoroughly to ensure even mixing, an initial viable count was taken and the samples incubated at 8° C. Samples were taken at twice-weekly intervals. The pH of the sausage meat slurry was 6.2.
# Y. enterocolitica S16 = assay: Bioscreen growth inhibition test; assay type: cell-based, Yersinia enterocolitica; details: BS010510, 24 h/30, APP20010213
# Method: as §2, §3, §4
# TAVC = assay: Inoculated test in raw meat; assay type: cell-based; details: 2000 ppm; inoculated raw meat at 8° C., TRM010620; TAVC 10^6 rising to >10^7 cfu/g
# Method: Fresh beef steak was purchased from the local butcher, and minced on clean machinery. The raw meat (ca. pH 6.2) was divided into 8×90 samples and inoculated-with 10^3 cfu/ml of test organisms. The meat was mixed thoroughly using a stomacher. 10 g of SDW or 2% APP (Batch number APP20010215) was added, and the meat was again thoroughly mixed. An initial viable count was taken, the meat was incubated at 8° C., and sampled on the following days using non-selective agar (MPCA) and selective agar: XLD for Salmonella; Oxford selective agar (Listeria monocytogenes); and STAA agar (Brochothrix thermosphacta). The pH of the raw meat was pH 5.3.
smiles,measurement,setting,value
"O=C1CC(CO)OC=C1O (centres unmarked) [APP, Ascopyrone P]",Control for,Br. thermosphacta; milk at 8° C.,1 days
same,Control of growth,Br. thermosphacta; milk at 20° C.,No control observed
same,Growth inhibition,B. nivea 163642; 1000 ppm,No growth inhibition
same,Growth inhibition,B. nivea 163642; 2000 ppm,No growth inhibition
same,Growth inhibition,Candida parapsilosis 458; 1000 ppm,No growth inhibition
same,Growth inhibition,Candida parapsilosis 458; 2000 ppm,No growth inhibition
same,Growth inhibition,[1]; 1000 ppm,No growth inhibition
same,Growth inhibition,[1]; 2000 ppm,No growth inhibition
same,No inhibition (effect on growth of target organism by 2000 ppm APP),[1]; Apple juice at ambient pH 3.4,Rh. mucilaginosa
same,APP level causing significant inhibition,[2],Enhanced growth
same,APP level causing total inhibition,[2],>4000
same,APP level causing significant inhibition,[3],2000
same,APP level causing total inhibition,[3],>4000
same,Growth inhibition,Cl. tyrobutyricum 2753,No growth inhibition
same,Effect on growth,[4],No significant effect with 500 and 100 ppm
same,APP level causing total inhibition,Y. enterocolitica S16,2000 ppm
same,Effect of APP,TAVC,No significant effect
